BindingDB's records for doi:10.1021/jm800138h (Gsk, 2008)
pIC50: −log10 of the molar value.

Experiments:
Test in all cases: Enzyme Inhibition Assay
Beta-secretase 1 = Beta-secretase 1 (Homo sapiens, UniProt P56817); details: pH 4.5; 22 °C
Description: (§1) Enzyme activity and inhibition were assayed using a fluorescent FAM-[SEVNLDAEFK]-TAMRA substrate. Control reactions with no enzyme were included in each assay. Quantification of substrate cleavage was assessed using an LJL analyst spectrophotometer (485nm excitation, 535nm emission).

Beta-secretase 2 = target: T1, Beta-secretase 2 (Homo sapiens, UniProt Q9Y5Z0); details: pH 4.5; 22 °C
T1 sequence (Q9Y5Z0 whole entry): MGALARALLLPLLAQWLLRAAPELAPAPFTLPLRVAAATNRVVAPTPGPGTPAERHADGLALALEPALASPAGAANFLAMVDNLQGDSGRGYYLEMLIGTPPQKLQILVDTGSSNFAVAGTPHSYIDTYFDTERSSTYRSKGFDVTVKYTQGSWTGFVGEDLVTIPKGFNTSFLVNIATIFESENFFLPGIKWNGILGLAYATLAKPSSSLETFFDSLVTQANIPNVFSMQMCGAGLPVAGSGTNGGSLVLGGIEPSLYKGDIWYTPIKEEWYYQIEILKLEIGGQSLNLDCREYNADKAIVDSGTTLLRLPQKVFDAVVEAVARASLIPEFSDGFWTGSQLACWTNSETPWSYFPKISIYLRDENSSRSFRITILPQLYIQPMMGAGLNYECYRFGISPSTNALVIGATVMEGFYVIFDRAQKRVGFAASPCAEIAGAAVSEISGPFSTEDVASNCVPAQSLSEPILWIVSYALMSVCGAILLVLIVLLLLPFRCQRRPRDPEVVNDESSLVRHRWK
Description: as §1

Cathepsin D = Cathepsin D (Homo sapiens, UniProt P07339)
Description: as §1

Sequence of Cathepsin D (P07339 65-162 limits assumed): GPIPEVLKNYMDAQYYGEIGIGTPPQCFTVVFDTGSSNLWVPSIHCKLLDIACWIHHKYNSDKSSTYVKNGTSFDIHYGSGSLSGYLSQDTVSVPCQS
Sequence of Cathepsin D (P07339 169-412 limits assumed): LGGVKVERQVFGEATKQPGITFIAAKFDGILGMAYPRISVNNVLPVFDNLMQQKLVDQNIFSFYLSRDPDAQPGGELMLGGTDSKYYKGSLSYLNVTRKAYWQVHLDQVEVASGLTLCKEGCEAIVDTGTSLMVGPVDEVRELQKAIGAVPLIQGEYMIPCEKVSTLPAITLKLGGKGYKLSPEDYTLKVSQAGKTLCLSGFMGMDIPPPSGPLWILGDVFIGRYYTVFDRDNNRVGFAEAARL
Sequence of Beta-secretase 1 (P56817 whole entry): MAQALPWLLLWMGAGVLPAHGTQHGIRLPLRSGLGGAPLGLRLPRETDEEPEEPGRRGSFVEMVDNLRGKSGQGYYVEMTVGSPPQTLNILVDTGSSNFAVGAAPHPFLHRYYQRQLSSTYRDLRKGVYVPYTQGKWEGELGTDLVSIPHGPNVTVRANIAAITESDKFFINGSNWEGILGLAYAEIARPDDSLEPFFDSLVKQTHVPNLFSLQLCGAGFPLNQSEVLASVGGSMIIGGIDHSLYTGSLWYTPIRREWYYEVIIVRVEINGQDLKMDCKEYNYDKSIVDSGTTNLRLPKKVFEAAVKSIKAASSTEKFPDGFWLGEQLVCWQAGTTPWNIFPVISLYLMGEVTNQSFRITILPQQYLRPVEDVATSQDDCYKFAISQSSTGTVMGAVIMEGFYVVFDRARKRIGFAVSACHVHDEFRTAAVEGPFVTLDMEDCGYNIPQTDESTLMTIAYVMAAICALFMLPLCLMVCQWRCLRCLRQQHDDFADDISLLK

CCNc1cc(C(=O)N[C@@H](Cc2ccccc2)[C@H](O)CNC(C)(C)CCCC(C)C)cc(N2CCCCS2(=O)=O)c1 [N-[(2S,3R)-4-[(2,6-dimethylheptan-2-yl)amino]-3-hydroxy-1-phenylbutan-2-yl]-3-(1,1-dioxo-1,2-thiazinan-2-yl)-5-(ethylamino)benzamide]
pIC50 (Beta-secretase 1): 7.52 | pIC50 (Beta-secretase 2): 5.10 | pIC50 (Cathepsin D): 5.28

CCc1cn2c3c(cc(C(=O)N[C@@H](Cc4ccccc4)[C@H](O)CNC4CCCCC4)cc13)N(C)S(=O)(=O)CC2 [BMCL193669 Compound 26]
pIC50 (Beta-secretase 1): 8.05 | pIC50 (Beta-secretase 2): 6.68 | pIC50 (Cathepsin D): 6.18

CCNc1cc(C(=O)N[C@@H](Cc2ccccc2)[C@H](O)CNC)cc(N2CCCCS2(=O)=O)c1 [3-(1,1-dioxo-1,2-thiazinan-2-yl)-5-(ethylamino)-N-[(2S,3R)-3-hydroxy-4-(methylamino)-1-phenylbutan-2-yl]benzamide]
pIC50 (Beta-secretase 1): 6.85 | pIC50 (Cathepsin D): < 4.00

CCc1cn2c3c(cc(C(=O)N[C@@H](Cc4ccccc4)[C@H](O)CNC(C)(C)CCCC(C)C)cc13)N(C)S(=O)(=O)CC2 [N-[(2S,3R)-4-[(2,6-dimethylheptan-2-yl)amino]-3-hydroxy-1-phenylbutan-2-yl]-3-ethyl-9-methyl-10,10-dioxo-10-thia-1,9-diazatricyclo[6.4.1.0^{4,13}]trideca-2,4(13),5,7-tetraene-6-carboxamide]
pIC50 (Beta-secretase 1): 8.30 | pIC50 (Beta-secretase 2): 6.94 | pIC50 (Cathepsin D): 6.00

CCNc1cc(C(=O)N[C@@H](Cc2ccccc2)[C@H](O)CNC2CCCCC2)cc(N2CCCCS2(=O)=O)c1 [N-[(2S,3R)-4-(cyclohexylamino)-3-hydroxy-1-phenylbutan-2-yl]-3-(1,1-dioxo-1,2-thiazinan-2-yl)-5-(ethylamino)benzamide]
pIC50 (Beta-secretase 1): 7.16 | pIC50 (Beta-secretase 2): 5.36 | pIC50 (Cathepsin D): 5.63
